Results reported in the NIST ThermoML archive (doi:10.1016/j.fluid.2004.11.021).
± gives the expanded uncertainty stated by the source.

Test: xn = mol fraction of the nth substance listed
Details: Fluid (supercritical or subcritical phases), isochoric method

[N-]=[N+]=O [nitrous oxide] + FC(F)F
Details | molar volume [m3/mol]
253.03 K, 1464.8 kPa, x1 = 0.1116 | 0.001035 ± 1e-06
253.09 K, 1627.2 kPa, x1 = 0.4162 | 0.000978 ± 1e-06
258 K, 1541.9 kPa, x1 = 0.1116 | 0.001035 ± 1e-06
258.06 K, 1905.9 kPa, x1 = 0.563 | 0.000867 ± 1e-06
258.08 K, 1718.9 kPa, x1 = 0.4162 | 0.000978 ± 1e-06
258.09 K, 1832.3 kPa, x1 = 0.2888 | 0.000828 ± 1e-06
262.96 K, 1968.2 kPa, x1 = 0.563 | 0.000867 ± 1e-06
263.06 K, 1593.9 kPa, x1 = 0.1116 | 0.001035 ± 1e-06
263.06 K, 1774.4 kPa, x1 = 0.4162 | 0.000979 ± 1e-06
263.08 K, 1926.6 kPa, x1 = 0.2888 | 0.000829 ± 1e-06
267.94 K, 2030.3 kPa, x1 = 0.563 | 0.000867 ± 1e-06
268 K, 1644.1 kPa, x1 = 0.1116 | 0.001035 ± 1e-06
268.04 K, 1829.1 kPa, x1 = 0.4162 | 0.000979 ± 1e-06
268.04 K, 1991.7 kPa, x1 = 0.2888 | 0.000829 ± 1e-06
268.04 K, 2663.9 kPa, x1 = 0.6362 | 0.000591 ± 1e-06
272.9 K, 1693.3 kPa, x1 = 0.1116 | 0.001035 ± 1e-06
272.93 K, 2055.2 kPa, x1 = 0.2888 | 0.000829 ± 1e-06
272.95 K, 2091.7 kPa, x1 = 0.563 | 0.000867 ± 1e-06
273.02 K, 2765.9 kPa, x1 = 0.6362 | 0.000591 ± 1e-06
273.03 K, 1883 kPa, x1 = 0.4162 | 0.000979 ± 1e-06
282.83 K, 2180.4 kPa, x1 = 0.2888 | 0.000829 ± 1e-06
282.84 K, 1790.6 kPa, x1 = 0.1116 | 0.001036 ± 1e-06
283 K, 1988.8 kPa, x1 = 0.4162 | 0.000979 ± 1e-06
283 K, 2957.6 kPa, x1 = 0.6362 | 0.000591 ± 1e-06
283.02 K, 2213.7 kPa, x1 = 0.563 | 0.000868 ± 1e-06
292.93 K, 3143.3 kPa, x1 = 0.6362 | 0.000591 ± 1e-06
293.06 K, 1887.6 kPa, x1 = 0.1116 | 0.001036 ± 1e-06
293.07 K, 2332 kPa, x1 = 0.563 | 0.000868 ± 1e-06
293.08 K, 2094.2 kPa, x1 = 0.4162 | 0.00098 ± 1e-06
298.02 K, 3235.8 kPa, x1 = 0.6362 | 0.000591 ± 1e-06
298.05 K, 1934.6 kPa, x1 = 0.1116 | 0.001037 ± 1e-06
298.08 K, 2145.4 kPa, x1 = 0.4162 | 0.00098 ± 1e-06
298.09 K, 2390.3 kPa, x1 = 0.563 | 0.000868 ± 1e-06
298.1 K, 2367.2 kPa, x1 = 0.2888 | 0.00083 ± 1e-06
308.02 K, 2027.4 kPa, x1 = 0.1116 | 0.001037 ± 1e-06
308.05 K, 3416.1 kPa, x1 = 0.6362 | 0.000592 ± 1e-06
308.06 K, 2246.6 kPa, x1 = 0.4162 | 0.000981 ± 1e-06
308.08 K, 2486.6 kPa, x1 = 0.2888 | 0.00083 ± 1e-06
308.42 K, 2509 kPa, x1 = 0.563 | 0.000869 ± 1e-06
317.83 K, 2615.8 kPa, x1 = 0.563 | 0.000869 ± 1e-06
318.02 K, 2345.8 kPa, x1 = 0.4162 | 0.000981 ± 1e-06
318.02 K, 2603.8 kPa, x1 = 0.2888 | 0.000831 ± 1e-06
318.03 K, 3592.6 kPa, x1 = 0.6362 | 0.000592 ± 1e-06
318.11 K, 2119.5 kPa, x1 = 0.1116 | 0.001037 ± 1e-06
328.1 K, 2210.6 kPa, x1 = 0.1116 | 0.001038 ± 1e-06
328.1 K, 2731.1 kPa, x1 = 0.563 | 0.000869 ± 1e-06
328.11 K, 2445.5 kPa, x1 = 0.4162 | 0.000981 ± 1e-06
328.12 K, 3768.5 kPa, x1 = 0.6362 | 0.000592 ± 1e-06
328.13 K, 2721.6 kPa, x1 = 0.2888 | 0.000831 ± 1e-06
338.08 K, 2300.2 kPa, x1 = 0.1116 | 0.001038 ± 1e-06
338.08 K, 2543.3 kPa, x1 = 0.4162 | 0.000982 ± 1e-06
338.08 K, 2836.1 kPa, x1 = 0.2888 | 0.000831 ± 1e-06
338.09 K, 2842.1 kPa, x1 = 0.563 | 0.00087 ± 1e-06
338.09 K, 3939.9 kPa, x1 = 0.6362 | 0.000592 ± 1e-06
348.06 K, 2388.8 kPa, x1 = 0.1116 | 0.001039 ± 1e-06
348.06 K, 2949.9 kPa, x1 = 0.2888 | 0.000832 ± 1e-06
348.06 K, 2951.9 kPa, x1 = 0.563 | 0.00087 ± 1e-06
348.07 K, 2640.2 kPa, x1 = 0.4162 | 0.000982 ± 1e-06
348.07 K, 4110.3 kPa, x1 = 0.6362 | 0.000593 ± 1e-06
358.03 K, 2476.8 kPa, x1 = 0.1116 | 0.001039 ± 1e-06
358.03 K, 3062.3 kPa, x1 = 0.2888 | 0.000832 ± 1e-06
358.04 K, 2736.3 kPa, x1 = 0.4162 | 0.000983 ± 1e-06
358.05 K, 3061.1 kPa, x1 = 0.563 | 0.00087 ± 1e-06
358.05 K, 4278.2 kPa, x1 = 0.6362 | 0.000593 ± 1e-06
